ChEMBL document CHEMBL5634123, “Design and synthesis of 1H-benzo[d]imidazole selective HDAC6 inhibitors with potential therapy for multiple myeloma” (Eur J Med Chem, 2023)
Active and inactive are the calls of the source. The rule behind the calls is not given here.

Legend:
RPMI-8226 [1] = test: Induction of apoptosis in human RPMI-8226 cells assessed as viable cells at 0.5 uM incubated for 24 hrs by Annexin V-FITC/PI staining based flow cytometry (reference value: 90.98 %); format: functional; conditions: read-out: Activity
RPMI-8226 [2] = test: Induction of cell cycle arrest at S phase in human RPMI-8226 cells at 2.5 uM incubated for 24 hrs by PI staining based flow cytometry (reference value: 58.5 %); format: functional
RPMI-8226 [3] = test: Induction of apoptosis in human RPMI-8226 cells assessed as late apoptotic cells at 0.1 uM incubated for 24 hrs by Annexin V-FITC/PI staining based flow cytometry (reference value: 2.78 %); format: functional
RPMI-8226 [4] = test: Induction of apoptosis in human RPMI-8226 cells assessed as late apoptotic cells at 2.5 uM incubated for 24 hrs by Annexin V-FITC/PI staining based flow cytometry (reference value: 2.78 %); format: functional
[5] = Toxicity in Balb/c nude mouse xenografted with human RPMI-8226 cells assessed as adverse effect on spleen at 10 to 40 mg/kg, po qd for 21 days administered consecutively by H and E staining based analysis; format: organism-based; conditions: in vivo, 504 h, dose 10-40 mg/kg, time 21 day
RPMI-8226 [6] = test: Induction of cell cycle arrest at G1 phase in human RPMI-8226 cells at 2.5 uM incubated for 24 hrs by PI staining based flow cytometry (reference value: 19.2 %); format: functional
[7] = AUC (0 to t) in mouse at 1 mg/kg, iv; format: ADME, organism-based; conditions: in vivo
RPMI-8226 [8] = test: Induction of cell cycle arrest at S phase in human RPMI-8226 cells at 0.5 uM incubated for 24 hrs by PI staining based flow cytometry (reference value: 58.5 %); format: functional
[9] = Toxicity in Balb/c nude mouse xenografted with human RPMI-8226 cells assessed as adverse effect on serum ALT level at 10 to 40 mg/kg, po qd for 21 days administered consecutively; format: organism-based; conditions: in vivo, 504 h, dose 10-40 mg/kg, time 21 day
RPMI-8226 [10] = test: Induction of cell cycle arrest at G1 phase in human RPMI-8226 cells at 0.5 uM incubated for 24 hrs by PI staining based flow cytometry (reference value: 19.2 %); format: functional
RPMI-8226 [11] = test: Induction of apoptosis in human RPMI-8226 cells assessed as increase in APAF-1 expression at 0.1 to 2.5 uM incubated for 24 hrs by Western blot analysis; format: functional, cell-based; conditions: dose 0.1-2.5 µM
Histone deacetylase 5 = Histone deacetylase 5 (Homo sapiens, UniProt Q9UQL6); test: Inhibition of HDAC5 (unknown origin) preincubated for 10 mins followed by substrate addition by fluorescence based assay
Chain of Histone deacetylase 5 (Q9UQL6 whole entry): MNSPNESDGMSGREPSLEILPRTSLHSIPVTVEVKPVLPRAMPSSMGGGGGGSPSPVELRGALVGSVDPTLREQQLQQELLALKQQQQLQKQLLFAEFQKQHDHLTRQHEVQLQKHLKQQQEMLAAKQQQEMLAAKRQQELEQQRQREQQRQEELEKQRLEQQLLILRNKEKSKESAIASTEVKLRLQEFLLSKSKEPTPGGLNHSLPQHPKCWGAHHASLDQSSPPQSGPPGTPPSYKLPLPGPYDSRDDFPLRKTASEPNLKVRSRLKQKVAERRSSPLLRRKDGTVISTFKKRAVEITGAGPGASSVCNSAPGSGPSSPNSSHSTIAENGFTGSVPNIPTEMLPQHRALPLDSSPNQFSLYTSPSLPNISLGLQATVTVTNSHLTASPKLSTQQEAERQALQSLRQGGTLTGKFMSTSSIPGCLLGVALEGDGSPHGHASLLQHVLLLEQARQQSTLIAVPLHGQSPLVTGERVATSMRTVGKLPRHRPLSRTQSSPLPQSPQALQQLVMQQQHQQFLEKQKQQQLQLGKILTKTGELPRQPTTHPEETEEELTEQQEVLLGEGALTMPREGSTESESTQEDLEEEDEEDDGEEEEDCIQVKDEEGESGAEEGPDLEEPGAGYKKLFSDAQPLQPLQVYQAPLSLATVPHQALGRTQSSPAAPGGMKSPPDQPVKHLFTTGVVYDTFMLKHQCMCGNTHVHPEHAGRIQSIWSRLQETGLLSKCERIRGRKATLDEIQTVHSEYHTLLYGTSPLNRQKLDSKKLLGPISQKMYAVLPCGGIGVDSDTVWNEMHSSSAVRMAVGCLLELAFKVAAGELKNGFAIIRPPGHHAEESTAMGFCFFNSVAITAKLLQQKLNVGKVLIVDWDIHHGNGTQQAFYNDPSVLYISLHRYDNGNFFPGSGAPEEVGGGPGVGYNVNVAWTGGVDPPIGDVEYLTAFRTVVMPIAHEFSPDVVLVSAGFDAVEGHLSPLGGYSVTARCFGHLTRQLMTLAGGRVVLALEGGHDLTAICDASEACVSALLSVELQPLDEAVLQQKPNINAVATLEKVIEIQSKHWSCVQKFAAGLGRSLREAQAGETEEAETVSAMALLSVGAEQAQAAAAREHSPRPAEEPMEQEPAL

[12] = Toxicity in Balb/c nude mouse xenografted with human RPMI-8226 cells assessed as adverse effect on kidney at 10 to 40 mg/kg, po qd for 21 days administered consecutively by H and E staining based analysis; format: organism-based; conditions: in vivo, 504 h, dose 10-40 mg/kg, time 21 day
[13] = Toxicity in Balb/c nude mouse xenografted with human RPMI-8226 cells assessed as adverse effect on serum AST level at 10 to 40 mg/kg, po qd for 21 days administered consecutively; format: organism-based; conditions: in vivo, 504 h, dose 10-40 mg/kg, time 21 day
[14] = Half life in mouse at 10 mg/kg, po; format: ADME, organism-based; conditions: in vivo
Histone deacetylase 11 = molecular target: T1, Histone deacetylase 11 (Homo sapiens, UniProt Q96DB2); test: Inhibition of HDAC11 (unknown origin) preincubated for 10 mins followed by substrate addition by fluorescence based assay
T1 sequence (Q96DB2 whole entry): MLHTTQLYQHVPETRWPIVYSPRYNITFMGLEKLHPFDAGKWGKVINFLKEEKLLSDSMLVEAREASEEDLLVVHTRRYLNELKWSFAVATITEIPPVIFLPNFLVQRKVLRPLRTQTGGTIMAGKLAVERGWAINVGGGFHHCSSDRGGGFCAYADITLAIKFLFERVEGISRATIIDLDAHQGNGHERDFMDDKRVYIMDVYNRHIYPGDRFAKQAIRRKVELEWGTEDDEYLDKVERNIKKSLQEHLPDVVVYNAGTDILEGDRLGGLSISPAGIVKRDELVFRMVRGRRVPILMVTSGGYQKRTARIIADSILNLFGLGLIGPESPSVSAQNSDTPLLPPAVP

Histone deacetylase 1 = Histone deacetylase 1 (Homo sapiens, UniProt Q13547); test: Inhibition of HDAC1 (unknown origin) preincubated for 10 mins followed by substrate addition measured for 1 hr by fluorescence based assay
Chain of Histone deacetylase 1 (Q13547 whole entry): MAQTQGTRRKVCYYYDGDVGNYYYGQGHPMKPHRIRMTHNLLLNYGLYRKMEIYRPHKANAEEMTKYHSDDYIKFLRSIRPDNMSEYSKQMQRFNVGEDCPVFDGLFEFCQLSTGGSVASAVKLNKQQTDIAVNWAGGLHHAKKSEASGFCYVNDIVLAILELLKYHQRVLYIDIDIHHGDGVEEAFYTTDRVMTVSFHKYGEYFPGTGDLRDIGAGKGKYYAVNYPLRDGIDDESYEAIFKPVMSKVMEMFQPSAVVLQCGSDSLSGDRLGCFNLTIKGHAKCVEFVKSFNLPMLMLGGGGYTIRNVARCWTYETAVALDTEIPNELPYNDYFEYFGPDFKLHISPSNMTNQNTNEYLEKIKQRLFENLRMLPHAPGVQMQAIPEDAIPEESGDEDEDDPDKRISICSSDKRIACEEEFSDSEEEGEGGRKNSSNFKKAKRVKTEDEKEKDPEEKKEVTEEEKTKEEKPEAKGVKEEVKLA

[15] = Clearance in mouse at 1 mg/kg, iv; format: ADME, organism-based; conditions: in vivo
RPMI-8226 [16] = test: Induction of apoptosis in human RPMI-8226 cells assessed as late apoptotic cells at 0.5 uM incubated for 24 hrs by Annexin V-FITC/PI staining based flow cytometry (reference value: 2.78 %); format: functional
RPMI-8226 [17] = test: Induction of apoptosis in human RPMI-8226 cells assessed as necrotic cells at 0.1 uM incubated for 24 hrs by Annexin V-FITC/PI staining based flow cytometry (reference value: 0.90 %); format: functional
[18] = Tmax in mouse at 10 mg/kg, po; format: ADME, organism-based; conditions: in vivo
RPMI-8226 [19] = test: cells; conditions: Homo sapiens, RPMI-8226, 24 h
RPMI-8226 [20] = test: Induction of cell cycle arrest at G2 phase in human RPMI-8226 cells at 0.1 uM incubated for 24 hrs by PI staining based flow cytometry (reference value: 18.3 %); format: functional

Cn1c([C@@H](Cc2ccccc2)NCc2ccccc2)nc2cc(C(=O)NO)ccc21
viability at 0.5 µM (RPMI-8226 [1]): 81.2%
Activity (RPMI-8226 [2]): 39.8%
Activity (RPMI-8226 [3]): 4.28%
Activity (RPMI-8226 [4]): 4.26%
Activity [5]: Non-Toxic
Activity (RPMI-8226 [6]): 26.8%
AUC(0-t) [7]: 202 ng·h/mL
Activity (RPMI-8226 [8]): 43.3%
Activity [9]: Non-Toxic
Activity (RPMI-8226 [10]): 24.5%
Activity (RPMI-8226 [11]): Active
IC50 (Histone deacetylase 5): 2120 nM
Activity [12]: Non-Toxic
Activity [13]: Non-Toxic
half-life [14]: 20 min
IC50 (Histone deacetylase 11): 983 nM
IC50 (Histone deacetylase 1): 1130 nM
clearance [15]: 82.9 mL/min/kg
Activity (RPMI-8226 [16]): 4.24%
Activity (RPMI-8226 [17]): 0.45%
Tmax [18]: 20 min
IC50 (RPMI-8226 [19]): 528 nM
Activity (RPMI-8226 [20]): 21.1%
